# Results reported in the RepoRT retention time repository (doi:10.1021/acs.analchem.2c02893).
# Test: RP, Thermo Scientific Acclaim RSLC 120 C18, 100 × 2.1 mm, 2.2 µm, 30 °C, 0.2 mL/min, estimated dead time 1.1 min; A: 90% water + 10% methanol + 0.01% formic acid + 5 mM ammonium formate, pH 3.61; B: methanol + 0.01% formic acid + 5 mM ammonium formate, pH 3.61; gradient (min/%B) 0/1 1/1 2/39 13/99.9 15/99.9 15.1/1 20.1/1
# Details: stereoisomer not certain
row,SMILES,LC retention time [min]
1,COCCCCC(=NOCCN)c1ccc(C(F)(F)F)cc1 [Fluvoxamine],8.28
2,CN(CCO)c1nc2c(c(=O)n(C)c(=O)n2C)n1C [Cafaminol],4.94
3,CCCCCn1cc(C(=O)c2cccc3ccccc23)c2c(O)cccc21 [JWH-018-M-4-OH-Ind],12.5
4,Cc1ccc(C(CCN(C)C)c2ccccc2)cc1 (configuration not stated) [Tolpropamine],7.47
5,CCOC(=O)c1cn2nc(OP(=S)(OCC)OCC)cc2nc1C [Pyrazophos],11.4
6,CCS(=O)Cc1ccccc1OC(=O)NC (configuration not stated) [Ethiofencarb-sulfoxide],4.7
7,CN1C(=O)CN=C(c2ccccc2F)c2cc([N+](=O)[O-])ccc21 [Flunitrazepam],7.83
8,CNC(C)Cc1ccc(O)cc1 (configuration not stated) [Pholedrine (Amphetamine-P-Hydroxy-methyl)],2.91
9,COc1ccc(NC(=O)N(C)C)cc1Cl [Metoxuron],6.17
10,CNC(=O)C=C(C)OP(=O)(OC)OC [Monocrotophos],4.36
11,NC(CO)C(=O)NNCc1ccc(O)c(O)c1O (configuration not stated) [Benserazide],1.38
12,Cc1ccc(C2(c3ccccc3)NC(=O)NC2=O)cc1 (configuration not stated) [MPPH (5-(p-Methylphenyl)-5-phenylhydantoin)],8.12
13,CNC(C)Cc1cccc(F)c1 (configuration not stated) [Amphetamine-3-F-Methyl (3-F-methamphetamine)],4.39
14,CCC(C)(CC)c1cc(NC(=O)c2c(OC)cccc2OC)on1 [Isoxaben],9.42
15,CC1CCCC(C)N1CCCC(O)(c1ccccc1)c1ccccn1 (configuration not stated) [Pirmenol],6.01
16,COc1cccc(C2(O)CCCCC2C[N+](C)(C)[O-])c1 (configuration not stated) [Tramadol-N-oxide],5.24
17,CNC(=O)Oc1cccc2c1OC(C)(C)O2 [Bendiocarb],7.02
18,CCOP(=S)(OCC)Oc1ccc(S(C)=O)cc1 (configuration not stated) [Fensulfothion],8.27
19,O=C1CN(O)C(c2ccccc2)=c2cc(Cl)ccc2=N1 [Demoxepam],7.14
20,Cc1ccc(C(=CCN2CCCC2)c2cccc(C=CC(=O)O)n2)cc1 [Acrivastine],6.66
21,CC(C)C(NC(=O)c1nn(CCCCCF)c2ccccc12)C(N)=O (configuration not stated) [AB-PINACA 5F],9.12

row,SMILES,LC retention time [min]
1,CC(N)C(=O)c1ccccc1 (configuration not stated) [Cathinone],3.59
2,CN(C)CCCN1c2ccccc2CCc2ccc(Cl)cc21 [Clomipramine],9.21
3,CNC(=C[N+](=O)[O-])NCCSCc1csc(CN(C)C)n1 [Nizatidine],2.96
4,C=CCC(C(=O)NC(N)=O)C(C)C (configuration not stated) [Apronalide],6.94
5,CC1CCCCC1NC(=O)Nc1ccccc1 (configuration not stated) [Siduron],9.37
6,CCC1OC(=O)CC(O)C(C)C(OC2OC(C)C(O)C(N(C)C)C2O)C(CCN2CC(C)CC(C)C2)CC(C)C(=O)C=CC(C)=CC1COC1OC(C)C(O)C(OC)C1OC (configuration not stated) [Tilmicosin],6.69
7,CCCCOC(=O)c1ccccc1C(=O)OCc1ccccc1 [Phthalate-Benzyl butyl],12.4
8,CC(N)Cc1c[nH]c2ccccc12 (stereo not drawn) [AMT (Alpha-Methyltryptamine)],4.44
9,COC(=O)c1c(Cl)ccc(Cl)c1OC [Dicamba-methyl],9.64
10,Nc1ccc(S(=O)(=O)Nc2cnc3ccccc3n2)cc1 [Sulfaquinoxaline],5.81
11,CN1CCC(OC(c2ccccc2)c2ccccc2)CC1 [Diphenylpyraline],7.23
12,COCC(C)N(C(=O)CS(=O)(=O)O)c1c(C)csc1C (configuration not stated) [Dimethenamide-ESA],6.28
13,Cc1ccc(Cl)c(Nc2ccccc2C(=O)O)c1Cl [Meclofenamic acid],11.3
14,Cc1c(NC(=O)c2cccnc2)c(=O)n(-c2ccccc2)n1C [Nifenazone],4.56
15,Nc1ccc(S(=O)(=O)c2ccc(N)cc2)cc1 [Dapsone],4.13
16,COc1ccc2c3c1OC1C(=O)CCC4(O)C(C2)NCCC314 (configuration not stated) [Oxycodone-Nor],3.71
17,CCC1=C(C)CN(C(=O)NCCc2ccc(S(=O)(=O)NC(=O)NC3CCC(C)CC3)cc2)C1=O (configuration not stated) [Glimepiride],10.7
18,CCC=CCC1=C(C)C(OC(=O)C2C(C=C(C)C(=O)OC)C2(C)C)CC1=O (configuration not stated) [Pyrethrins: Jasmolin II],12.2
19,CCC(=O)C(CCN(C)C)(c1ccccc1)c1ccccc1 [Methadone-Nor],7.68
20,CCCCCCCCCCCC[N+](C)(C)Cc1ccccc1 [Benzododecinium (Benzyl-dimethyl-dodecylammonium)],11.2
21,CC(C)C(NC(=O)c1nn(CCCCCCl)c2ccccc12)C(N)=O (configuration not stated) [AB-PINACA 5Cl],9.99

row,SMILES,LC retention time [min]
1,COc1nc(C)nc(NC(=O)NS(=O)(=O)c2ccccc2CCC(F)(F)F)n1 [Prosulfuron],8.57
2,CN(C)CCCC1(c2ccc(F)cc2)OCc2cc(C#N)ccc21 (configuration not stated) [Citalopram],6.59
3,CC(=O)C1(O)CCC2C3CCC4=CC(=O)CCC4(C)C3CCC21C (stereo not drawn) [17alpha-Hydroxyprogesterone],10
4,CN(C)CCc1ccc(O)cc1 [Hordenine],2.28
5,CC(C)c1nc(CN(C)C(=O)NC(C(=O)NC(Cc2ccccc2)CC(O)C(Cc2ccccc2)NC(=O)OCc2cncs2)C(C)C)cs1 (configuration not stated) [Ritonavir],11.1
6,CCC(C)c1ccccc1OC(=O)NC (configuration not stated) [Fenobucarb],9.05
7,CC(C)C(=O)C1(C(=O)Nc2ccccc2)OC1(C(=O)c1ccc(F)cc1)c1ccccc1 (configuration not stated) [Atorvastatin IMP D (epoxide)],10.3
8,CCc1cc2c(s1)N(C)C(=O)CN=C2c1ccccc1Cl [Clotiazepam],10.2
9,c1ccc(C2(N3CCCCC3)CCCCC2)cc1 [Phencyclidine],5.74
10,CNCC(O)c1cccc(NS(C)(=O)=O)c1 (configuration not stated) [Amidephrine],2.54
11,O=C(CCCN1CC=C(n2c(=O)[nH]c3ccccc32)CC1)c1ccc(F)cc1 [Droperidol],6.16
12,COc1ccc(CNC(=O)c2cc([N+](=O)[O-])ccc2NC(C)CO)cc1OC (configuration not stated) [Benzamidenafil],7.8
13,CNC(C)C(=O)c1ccc(C)c(C)c1 (configuration not stated) [DMMC (3-4-)],5.23
14,COCCCOc1ccnc(CS(=O)c2nc3ccccc3[nH]2)c1C (configuration not stated) [Rabeprazole],7.52
15,Cc1cccc(C)c1NC(=O)C1CCCCN1C (configuration not stated) [Mepivacaine],4.66
16,CCN(CC)CC(=O)Nc1c(C)cccc1C(=O)OC [Tolycaine],4.59
17,"Nc1ccc(S(=O)(=O)O)c(N)c1 [2,4-Diaminobenzenesulfonic acid]",1.36
18,CN1CCCCC1CCN1c2ccccc2Sc2ccc(S(C)=O)cc21 (configuration not stated) [Mesoridazine],6.74
19,CN(C)CCc1c[nH]c2ccc(Cn3cncn3)cc12 [Rizatriptan],3.49
20,CC1CC2C3CC(F)C4=CC(=O)C=CC4(C)C3C(O)CC2(C)C1(O)C(=O)CO (configuration not stated) [Paramethasone],8.69
